Laboratory results as given in ChEMBL document CHEMBL4507276 (2021).

Experiments:
[1] = molecular target: T1, NUAK family SNF1-like kinase 1 (Homo sapiens) (UniProt O60285); conditions: Compound concentration 1000.0 nM
T1 sequence (whole entry): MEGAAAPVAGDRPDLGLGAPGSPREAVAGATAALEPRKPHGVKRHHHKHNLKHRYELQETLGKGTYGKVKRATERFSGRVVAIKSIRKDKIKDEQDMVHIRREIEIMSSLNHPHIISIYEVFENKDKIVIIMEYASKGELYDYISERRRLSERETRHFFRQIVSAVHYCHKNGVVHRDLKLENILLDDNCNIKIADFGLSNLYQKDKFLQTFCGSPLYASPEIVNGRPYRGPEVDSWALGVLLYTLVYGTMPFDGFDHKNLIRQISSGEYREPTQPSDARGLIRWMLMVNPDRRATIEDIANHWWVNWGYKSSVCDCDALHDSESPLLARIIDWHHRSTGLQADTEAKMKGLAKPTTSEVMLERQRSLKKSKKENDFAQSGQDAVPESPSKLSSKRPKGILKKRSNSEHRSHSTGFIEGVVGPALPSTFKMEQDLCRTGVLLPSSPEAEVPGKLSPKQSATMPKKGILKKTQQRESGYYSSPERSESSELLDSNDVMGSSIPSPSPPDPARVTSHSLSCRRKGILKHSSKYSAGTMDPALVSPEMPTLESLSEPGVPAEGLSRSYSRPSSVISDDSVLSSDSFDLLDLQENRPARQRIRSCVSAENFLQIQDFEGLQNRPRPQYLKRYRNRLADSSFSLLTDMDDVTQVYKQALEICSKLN

[2] = molecular target: Cyclin-dependent kinase-like 2 (Homo sapiens) (UniProt Q92772); conditions: Compound concentration 1000.0 nM
[3] = molecular target: Tyrosine-protein kinase CSK (Homo sapiens) (UniProt P41240); conditions: Compound concentration 1000.0 nM
[4] = molecular target: Serine/threonine-protein kinase MRCK gamma (Homo sapiens) (UniProt Q6DT37); conditions: Compound concentration 1000.0 nM
Chain of Serine/threonine-protein kinase MRCK gamma (Homo sapiens) (Q6DT37 whole entry): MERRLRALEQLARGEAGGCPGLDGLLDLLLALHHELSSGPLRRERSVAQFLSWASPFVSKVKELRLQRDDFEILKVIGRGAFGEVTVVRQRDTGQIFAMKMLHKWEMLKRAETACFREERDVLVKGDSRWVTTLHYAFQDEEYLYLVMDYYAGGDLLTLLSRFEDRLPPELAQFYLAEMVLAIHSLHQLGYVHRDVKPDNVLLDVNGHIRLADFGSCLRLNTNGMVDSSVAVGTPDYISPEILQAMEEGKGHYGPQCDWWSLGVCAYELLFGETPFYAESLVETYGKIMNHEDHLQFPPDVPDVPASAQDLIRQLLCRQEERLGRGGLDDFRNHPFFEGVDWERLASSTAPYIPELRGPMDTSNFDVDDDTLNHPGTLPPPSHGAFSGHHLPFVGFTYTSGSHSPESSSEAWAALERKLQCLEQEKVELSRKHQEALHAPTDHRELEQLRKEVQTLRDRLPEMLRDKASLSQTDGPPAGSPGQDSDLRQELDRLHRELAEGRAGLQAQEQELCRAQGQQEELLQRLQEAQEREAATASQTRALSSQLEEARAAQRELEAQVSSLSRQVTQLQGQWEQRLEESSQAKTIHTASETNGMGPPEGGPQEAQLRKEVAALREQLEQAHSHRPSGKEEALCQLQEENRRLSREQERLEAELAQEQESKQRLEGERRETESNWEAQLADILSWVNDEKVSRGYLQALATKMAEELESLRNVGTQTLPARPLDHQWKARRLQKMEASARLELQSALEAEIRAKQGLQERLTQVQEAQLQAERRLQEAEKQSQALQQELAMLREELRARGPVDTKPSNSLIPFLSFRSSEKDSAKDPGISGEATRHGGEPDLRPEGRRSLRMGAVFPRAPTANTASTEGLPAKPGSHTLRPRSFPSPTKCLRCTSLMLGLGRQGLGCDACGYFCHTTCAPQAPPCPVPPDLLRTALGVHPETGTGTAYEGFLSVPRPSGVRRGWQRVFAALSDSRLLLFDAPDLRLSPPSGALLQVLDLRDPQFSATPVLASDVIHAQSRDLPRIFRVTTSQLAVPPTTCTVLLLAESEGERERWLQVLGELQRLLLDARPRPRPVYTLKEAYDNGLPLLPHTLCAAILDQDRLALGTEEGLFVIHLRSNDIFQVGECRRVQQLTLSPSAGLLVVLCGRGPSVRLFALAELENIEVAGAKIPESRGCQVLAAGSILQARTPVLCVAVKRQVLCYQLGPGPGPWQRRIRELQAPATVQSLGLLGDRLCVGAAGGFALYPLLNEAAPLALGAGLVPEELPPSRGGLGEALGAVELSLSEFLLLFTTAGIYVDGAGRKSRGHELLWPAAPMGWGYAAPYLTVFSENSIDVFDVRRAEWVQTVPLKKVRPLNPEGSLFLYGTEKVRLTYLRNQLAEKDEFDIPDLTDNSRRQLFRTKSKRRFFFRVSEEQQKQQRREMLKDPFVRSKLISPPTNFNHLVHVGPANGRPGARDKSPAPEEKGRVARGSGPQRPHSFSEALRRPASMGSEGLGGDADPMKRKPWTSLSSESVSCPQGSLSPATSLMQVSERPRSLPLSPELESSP

[5] = system: Epidermal growth factor receptor (Homo sapiens), P00533 [L861Q]; conditions: Compound concentration 1000.0 nM
[6] = molecular target: Tyrosine-protein kinase Fer (Homo sapiens) (UniProt P16591); conditions: Compound concentration 1000.0 nM
Chain of Tyrosine-protein kinase Fer (Homo sapiens) (P16591 whole entry, looked up): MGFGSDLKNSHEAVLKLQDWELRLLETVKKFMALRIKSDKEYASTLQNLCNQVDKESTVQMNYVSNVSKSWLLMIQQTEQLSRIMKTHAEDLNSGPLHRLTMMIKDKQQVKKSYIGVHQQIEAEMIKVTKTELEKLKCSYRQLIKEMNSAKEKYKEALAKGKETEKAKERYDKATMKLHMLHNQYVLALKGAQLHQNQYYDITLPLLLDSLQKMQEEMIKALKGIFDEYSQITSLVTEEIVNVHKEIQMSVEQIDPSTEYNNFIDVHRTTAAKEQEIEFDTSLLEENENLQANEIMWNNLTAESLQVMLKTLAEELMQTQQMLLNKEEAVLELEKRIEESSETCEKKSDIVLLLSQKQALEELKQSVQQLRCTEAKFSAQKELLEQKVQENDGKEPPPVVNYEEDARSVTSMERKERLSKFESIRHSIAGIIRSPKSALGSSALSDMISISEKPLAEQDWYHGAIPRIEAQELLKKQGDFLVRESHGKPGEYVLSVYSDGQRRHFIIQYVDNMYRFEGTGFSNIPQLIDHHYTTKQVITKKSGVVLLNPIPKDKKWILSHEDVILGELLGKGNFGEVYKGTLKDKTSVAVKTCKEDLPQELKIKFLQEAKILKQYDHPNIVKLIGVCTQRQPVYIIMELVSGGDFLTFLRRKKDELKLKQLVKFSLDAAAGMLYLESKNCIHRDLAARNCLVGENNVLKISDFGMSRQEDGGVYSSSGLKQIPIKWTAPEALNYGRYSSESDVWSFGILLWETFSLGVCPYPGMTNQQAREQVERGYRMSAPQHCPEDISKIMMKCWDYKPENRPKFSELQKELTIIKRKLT

[7] = system: Fibroblast growth factor receptor 3 (Homo sapiens), P22607 [G697C]; conditions: Compound concentration 1000.0 nM
Chain of Fibroblast growth factor receptor 3 (Homo sapiens), P22607 [G697C] (P22607 whole entry G697C): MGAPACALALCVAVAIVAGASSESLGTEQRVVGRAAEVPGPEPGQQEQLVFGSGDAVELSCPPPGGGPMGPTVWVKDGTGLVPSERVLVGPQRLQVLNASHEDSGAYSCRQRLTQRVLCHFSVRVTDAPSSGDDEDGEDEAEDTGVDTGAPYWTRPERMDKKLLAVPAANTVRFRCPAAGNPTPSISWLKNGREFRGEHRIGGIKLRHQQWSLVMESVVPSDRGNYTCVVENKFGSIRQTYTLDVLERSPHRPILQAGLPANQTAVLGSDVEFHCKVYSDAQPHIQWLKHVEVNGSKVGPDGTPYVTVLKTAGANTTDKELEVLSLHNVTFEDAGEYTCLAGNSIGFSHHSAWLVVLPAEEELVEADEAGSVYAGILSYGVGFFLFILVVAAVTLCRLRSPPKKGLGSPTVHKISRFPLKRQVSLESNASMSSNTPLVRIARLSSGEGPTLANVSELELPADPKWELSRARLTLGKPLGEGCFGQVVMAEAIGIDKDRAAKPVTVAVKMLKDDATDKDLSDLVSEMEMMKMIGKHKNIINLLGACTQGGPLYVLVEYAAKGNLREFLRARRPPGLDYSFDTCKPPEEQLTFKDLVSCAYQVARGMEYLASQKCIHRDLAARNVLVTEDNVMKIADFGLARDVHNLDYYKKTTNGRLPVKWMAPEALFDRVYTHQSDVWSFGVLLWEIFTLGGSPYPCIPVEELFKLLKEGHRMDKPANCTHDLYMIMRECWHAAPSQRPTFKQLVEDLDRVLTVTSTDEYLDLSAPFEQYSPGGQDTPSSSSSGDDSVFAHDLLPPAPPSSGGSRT

[8] = molecular target: Interleukin-1 receptor-associated kinase 1 (Homo sapiens) (UniProt P51617); conditions: Compound concentration 1000.0 nM
[9] = system: Leucine-rich repeat serine/threonine-protein kinase 2 (Homo sapiens), Q5S007 [G2019S]; conditions: Compound concentration 1000.0 nM
[10] = molecular target: MAP kinase-interacting serine/threonine-protein kinase 2 (Homo sapiens) (UniProt Q9HBH9); conditions: Compound concentration 1000.0 nM
[11] = molecular target: Mitogen-activated protein kinase kinase kinase 11 (Homo sapiens) (UniProt Q16584); conditions: Compound concentration 1000.0 nM
[12] = molecular target: Serine/threonine-protein kinase Nek7 (Homo sapiens) (UniProt Q8TDX7); conditions: Compound concentration 1000.0 nM
Chain of Serine/threonine-protein kinase Nek7 (Homo sapiens) (Q8TDX7 whole entry, looked up): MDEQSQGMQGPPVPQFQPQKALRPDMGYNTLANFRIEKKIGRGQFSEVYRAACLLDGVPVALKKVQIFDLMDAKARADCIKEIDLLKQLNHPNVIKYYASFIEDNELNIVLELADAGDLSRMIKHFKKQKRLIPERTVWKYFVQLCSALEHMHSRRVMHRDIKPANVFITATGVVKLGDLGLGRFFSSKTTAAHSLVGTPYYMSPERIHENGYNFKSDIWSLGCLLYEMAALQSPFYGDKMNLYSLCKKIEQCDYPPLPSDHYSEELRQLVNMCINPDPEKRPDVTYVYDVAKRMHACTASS

[13] = molecular target: Serine/threonine-protein kinase PAK 3 (Homo sapiens) (UniProt O75914); conditions: Compound concentration 1000.0 nM
[14] = molecular target: Cyclin-dependent kinase 18 (Homo sapiens) (UniProt Q07002); conditions: Compound concentration 1000.0 nM
Chain of Cyclin-dependent kinase 18 (Homo sapiens) (Q07002 whole entry): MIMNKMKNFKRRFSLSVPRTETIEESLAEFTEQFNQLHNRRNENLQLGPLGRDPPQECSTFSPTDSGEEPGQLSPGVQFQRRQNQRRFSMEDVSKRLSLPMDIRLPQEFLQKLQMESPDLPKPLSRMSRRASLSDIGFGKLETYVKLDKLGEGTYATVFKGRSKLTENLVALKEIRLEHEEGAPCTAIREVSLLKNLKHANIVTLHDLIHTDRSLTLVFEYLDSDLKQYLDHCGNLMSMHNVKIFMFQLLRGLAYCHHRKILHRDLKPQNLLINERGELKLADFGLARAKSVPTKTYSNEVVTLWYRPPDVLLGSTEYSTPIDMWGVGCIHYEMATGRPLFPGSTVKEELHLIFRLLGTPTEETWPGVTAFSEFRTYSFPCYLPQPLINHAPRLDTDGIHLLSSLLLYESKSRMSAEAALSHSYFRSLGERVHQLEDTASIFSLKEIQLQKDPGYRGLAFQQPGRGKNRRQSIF

[15] = molecular target: Platelet-derived growth factor receptor alpha (Homo sapiens) (UniProt P16234); conditions: Compound concentration 1000.0 nM
[16] = molecular target: Calcium-dependent protein kinase 1 (Plasmodium falciparum) (UniProt P62344); conditions: Compound concentration 1000.0 nM
Chain of Calcium-dependent protein kinase 1 (Plasmodium falciparum) (P62344 2-524 limits assumed): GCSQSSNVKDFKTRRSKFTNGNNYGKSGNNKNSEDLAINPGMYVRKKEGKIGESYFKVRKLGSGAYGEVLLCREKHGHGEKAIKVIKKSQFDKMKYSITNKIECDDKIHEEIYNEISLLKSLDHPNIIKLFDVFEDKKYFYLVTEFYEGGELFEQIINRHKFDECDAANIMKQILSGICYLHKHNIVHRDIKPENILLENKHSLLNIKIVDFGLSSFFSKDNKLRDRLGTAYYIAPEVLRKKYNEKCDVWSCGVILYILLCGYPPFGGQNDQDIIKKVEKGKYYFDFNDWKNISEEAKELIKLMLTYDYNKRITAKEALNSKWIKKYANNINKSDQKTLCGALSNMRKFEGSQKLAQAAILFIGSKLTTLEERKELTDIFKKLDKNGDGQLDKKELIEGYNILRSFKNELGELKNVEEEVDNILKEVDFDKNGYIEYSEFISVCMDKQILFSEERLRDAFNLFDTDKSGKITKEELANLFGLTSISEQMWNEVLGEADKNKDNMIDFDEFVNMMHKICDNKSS

[17] = molecular target: Cyclin-dependent kinase 15 (Homo sapiens) (UniProt Q96Q40); conditions: Compound concentration 1000.0 nM
Chain of Cyclin-dependent kinase 15 (Homo sapiens) (Q96Q40 whole entry): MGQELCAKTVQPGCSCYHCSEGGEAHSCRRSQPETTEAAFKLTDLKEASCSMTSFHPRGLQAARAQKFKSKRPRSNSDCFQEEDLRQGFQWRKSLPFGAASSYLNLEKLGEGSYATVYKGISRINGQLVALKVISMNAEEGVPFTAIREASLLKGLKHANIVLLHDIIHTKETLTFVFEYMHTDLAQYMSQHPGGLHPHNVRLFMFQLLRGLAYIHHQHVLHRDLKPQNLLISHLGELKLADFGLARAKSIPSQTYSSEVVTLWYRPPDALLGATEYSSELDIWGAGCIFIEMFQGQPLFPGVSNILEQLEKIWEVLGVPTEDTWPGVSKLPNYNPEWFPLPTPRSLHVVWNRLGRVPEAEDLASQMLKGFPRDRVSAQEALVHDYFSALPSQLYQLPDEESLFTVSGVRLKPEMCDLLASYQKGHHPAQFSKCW

[18] = molecular target: cAMP-dependent protein kinase catalytic subunit beta (Homo sapiens) (UniProt P22694); conditions: Compound concentration 1000.0 nM
[19] = molecular target: Serine/threonine-protein kinase PLK1 (Homo sapiens) (UniProt P53350); conditions: Compound concentration 1000.0 nM
[20] = molecular target: T2, cAMP-dependent protein kinase catalytic subunit PRKX (Homo sapiens) (UniProt P51817); conditions: Compound concentration 1000.0 nM
T2 sequence (whole entry): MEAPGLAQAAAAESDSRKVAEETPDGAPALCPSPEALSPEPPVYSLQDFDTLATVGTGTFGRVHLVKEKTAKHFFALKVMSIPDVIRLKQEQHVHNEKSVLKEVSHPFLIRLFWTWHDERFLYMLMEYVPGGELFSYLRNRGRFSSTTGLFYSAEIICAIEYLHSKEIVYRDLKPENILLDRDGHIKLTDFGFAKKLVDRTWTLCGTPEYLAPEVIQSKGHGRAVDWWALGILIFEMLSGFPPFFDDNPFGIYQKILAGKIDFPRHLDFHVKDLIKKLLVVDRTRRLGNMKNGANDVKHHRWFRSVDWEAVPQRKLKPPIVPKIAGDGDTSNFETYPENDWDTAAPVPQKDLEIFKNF

[21] = molecular target: Proto-oncogene tyrosine-protein kinase receptor Ret (Homo sapiens) (UniProt P07949); conditions: Compound concentration 1000.0 nM
[22] = molecular target: Serine/threonine-protein kinase 33 (Homo sapiens) (UniProt Q9BYT3); conditions: Compound concentration 1000.0 nM
[23] = molecular target: Wee1-like protein kinase (Homo sapiens) (UniProt P30291); conditions: Compound concentration 1000.0 nM
[24] = molecular target: Serine/threonine-protein kinase 32C (Homo sapiens) (UniProt Q86UX6); conditions: Compound concentration 1000.0 nM
[25] = molecular target: T3, 5-hydroxytryptamine receptor 3A (Homo sapiens) (UniProt P46098); conditions: Compound concentration 10.0 uM
T3 sequence (whole entry): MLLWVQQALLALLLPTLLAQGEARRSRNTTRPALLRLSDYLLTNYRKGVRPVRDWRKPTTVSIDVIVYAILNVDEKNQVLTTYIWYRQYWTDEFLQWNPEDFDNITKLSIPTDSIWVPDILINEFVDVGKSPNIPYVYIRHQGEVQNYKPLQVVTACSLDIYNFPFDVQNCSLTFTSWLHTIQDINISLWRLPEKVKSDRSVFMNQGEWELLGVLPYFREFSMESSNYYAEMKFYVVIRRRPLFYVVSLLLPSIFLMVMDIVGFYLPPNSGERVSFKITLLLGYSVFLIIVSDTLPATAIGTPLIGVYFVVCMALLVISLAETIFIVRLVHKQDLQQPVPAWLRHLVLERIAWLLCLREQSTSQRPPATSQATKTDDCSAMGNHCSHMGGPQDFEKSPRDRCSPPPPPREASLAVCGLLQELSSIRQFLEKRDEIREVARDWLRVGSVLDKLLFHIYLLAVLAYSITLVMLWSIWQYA

CN(C)C(=O)Cn1cc(-c2nc(C3(c4ccc(-c5cnc(N)nc5)cc4)CC3)no2)cn1 [BI 0153]
inactive: residual activity [1] 82% | residual activity [2] 100% | residual activity [3] 100% | residual activity [4] 82% | residual activity [5] 100% | residual activity [6] 79% | residual activity [7] 100% | residual activity [8] 77% | residual activity [9] 100% | residual activity [10] 94% | residual activity [11] 87% | residual activity [12] 100% | residual activity [13] 82% | residual activity [14] 83% | residual activity [15] 83% | residual activity [16] 82% | residual activity [17] 100% | residual activity [18] 86% | residual activity [19] 82% | residual activity [20] 100% | residual activity [21] 94% | residual activity [22] 99% | residual activity [23] 87% | residual activity [24] 100% | inhibition [25] -8.52%

CN(C)C(=O)Cn1cc(-c2nc([C@@](C)(c3ccc(-c4cnc(N)nc4)cc3)C3CC3)no2)cn1 [BI 665915]
inactive: residual activity [1] 100% | residual activity [2] 100% | residual activity [3] 100% | residual activity [4] 87% | residual activity [5] 100% | residual activity [6] 94% | residual activity [7] 89% | residual activity [8] 85% | residual activity [9] 100% | residual activity [10] 88% | residual activity [11] 77% | residual activity [12] 90% | residual activity [13] 87% | residual activity [14] 100% | residual activity [15] 100% | residual activity [16] 58% | residual activity [17] 94% | residual activity [18] 100% | residual activity [19] 77% | residual activity [20] 100% | residual activity [21] 94% | residual activity [22] 100% | residual activity [23] 94% | residual activity [24] 88% | inhibition [25] -2.76%
